Laboratory results as given in patent US5854004A, “Process for screening substances capable of modulating a receptor-dependent cellular signal transmission path” (Boehringer Ingleheim GmbH, priority 1991, dated 1998).
Where no end group is shown, it is not given here.

Columns and labels:
[1] = biological target: T1, human neurokinin 2-receptor (Homo sapiens, UniProt P21452); assay: Luciferase activity in NK2-test cell line A20/NK2-122
T1 sequence (P21452 1-398): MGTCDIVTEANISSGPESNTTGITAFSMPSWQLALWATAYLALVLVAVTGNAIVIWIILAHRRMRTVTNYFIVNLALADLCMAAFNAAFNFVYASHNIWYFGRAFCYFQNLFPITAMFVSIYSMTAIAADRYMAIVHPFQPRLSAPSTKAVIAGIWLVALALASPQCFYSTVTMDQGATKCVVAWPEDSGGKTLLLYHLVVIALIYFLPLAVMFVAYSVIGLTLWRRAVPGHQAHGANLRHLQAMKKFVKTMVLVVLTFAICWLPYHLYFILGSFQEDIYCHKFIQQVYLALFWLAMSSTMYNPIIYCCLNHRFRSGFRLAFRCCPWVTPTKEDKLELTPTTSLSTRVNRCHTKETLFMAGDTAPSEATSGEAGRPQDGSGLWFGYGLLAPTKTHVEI
Experimental: (§1) 15-20 days after transfection, individual cell clones were transferred into 96-well microtitre plates and further cultivated. […] Approximately 40,000 cells in each clone were sown, in a procedure repeated 6 times, in 200 μl per well of a light-impervious 96-well microtitre plate coated with tissue culture (Microlite™, Dynatech Laboratories) and incubated overnight at 37° C. Three mixtures were treated with 10 ng TPA/ml and incubated for a further 8 hours. Then the medium was removed and the cells were washed twice with PBS.
This Example illustrates the preparation of a test cell line for the human neurokinin 2 (NK2)-receptor which is coupled to the phospholipase C-signal transduction pathway. This test cell line makes it possible, by measurement of the luciferase activity, to identify substances which modulate the intracellular IP3 /DAG concentrations, depending on the receptor.
(§2) The pretest cell line A20 was transfected, as described under a), by electroporation with the plasmid pAHyg-NK2, which had previously been linearised with BglII. From the day after transfection onwards, the cells were grown in selection medium, as used for the cell line A20 and additionally enriched with 150 μg/ml hygromycin B (Sigma). Individual clones were tested for inducibility of the luciferase activity as described under a).

cell line CHO C6-13 = assay: Luciferase expression in CRE-pretest cell line CHO C6-13; conditions: for change in luciferase expression/activity: 3 hours treatment, FIG. 33
Experimental: The transfection by electroporation was carried out as follows: after removal of the medium the cells were detached from the surface by means of a trypsin/PBS solution, suspended in medium and pelleted for 5 minutes at 250×g. The cells were washed in HBS (10 mM HEPES pH 7.4, 150 mM NaCl) and pelleted by centrifuging. The cells were suspended in HBS in a density of 1×10^7 cells/ml. 0.8 ml of cell suspension were mixed with 20 μg of DNA of the plasmid pADneo2-C6-BGL linearised with ScaI and transferred into an electroporation dish. […] After the electroporation the cells were diluted in the medium mentioned above, 20,000 cells per 90 mm culture dish was sown and incubated overnight at 37° C.
Two batches of each were treated with 20 μM forskolin and incubated for a further 5 hours at 37° C. Then the medium was removed from all the cells and the cells were washed with PBS.
Cells of the cell line CHO C6-13 were treated for 3 hours with various substances which alter the intracellular concentration of cAMP or IP3 /DAG or simulate a change in concentration, and also treated with receptor-specific agonists which influence the above-mentioned signal transduction mechanisms.

luciferase = luciferase (Photinus pyralis, UniProt P08659); assay: Effect of reagent component concentration on luciferase measuring signal; assay type: biochemical
Experimental: The effect of varying the concentration of ATP, luciferin, MgSO4. 7H2 O, dithiothreitol (DDT), β-mercaptoethanol (BME), sodium tripolyphosphate (NaTPP), Triton X-100 and the pH on the luciferase measuring signal obtained was determined (Table 2). The measurements obtained 3 minutes after the addition of the reagent were used for comparison (given as percentage of the maximum measuring signal obtained).

[2] = biological target: human dopamine D1-receptor (Homo sapiens, UniProt P21728); assay: Luciferase activity in dopamine D1-receptor test cell line CHO 13D1-38
Experimental: The cell line CHO C6-13 characterised above was transfected, as described under a), by electroporation with plasmid pAD-CMV2:D1, which had previously been linearised with FspI.
For the use of test cell lines in an automatic screening system with a high throughput rate it is advantageous to use microtitre plates having 96 wells per plate. For this purpose, 60,000 cells (CHO C6-13 or CHO 13D1-38) were sown in 200 μl medium per well in light-impermeable microtitre plates coated with tissue culture
(Microlite™, Dynatech Labroatories) and incubated overnight at 37° C. Then various chemicals were added to the cells and they were incubated for a certain length of time (usually 3 hours). After removal of the medium the cells were washed with PBS, lysed in 1% Triton X-100 and the luciferase activity was measured in a 96-well luminometer (ML-1000, Dynatech) (FIG. 36).
In order to simulate a screening process in which the test substances are preferably supplied in a uniform solvent, a final concentration of 1% DMSO was used in this experiment.

human 5HT2-receptor = human 5HT2-receptor (Homo sapiens, UniProt P28223); assay: cell-based
Source text: The human 5HT2-receptor is another example of a receptor coupled to the phospholipase C-signal transduction pathway. The TRE-cell line A20 is therefore also suitable in this case as a starting cell line for establishing a test cell line in order to discover substances which modulate the activity of the 5HT2-receptor.
The plasmid pAHyg-5HT2, linearised with BglII, was for this purpose transfected into the cell line A20 by electroporation as described under a) and grown in selection medium.
For this purpose the cells were simultaneously treated with a constant amount of serotonin (1 μg) and increasing amounts of antagonist.

cell line A20 = assay: Luciferase induction in stable TRE-pretest cell line A20 (A549, pBHluc1.3); conditions: A20, no receptor DNA
Experimental: In order to produce a stable (pre-)test cell line for substances which influence the expression of the luciferase gene by direct or receptor-mediated modulation of the IP3 /DAC-signal transduction pathway, A549 cells were simultaneously transfected with the plasmid pBHluc1.3 and the selection plasmid pRSVneo by electroporation as follows: after removal of the medium the cells were detached from the surface by means of a trypsin/PBS solution, suspended in medium and sedimented for 5 minutes at 250×g. […] 0.8 ml of cell suspension were combined with 20 μg of pBHluc1.3 and 2 μg of pRSVneo. Both plasmids had previously been linearised with BamHI.
as §1, §2

human 5HT2-receptor, sequence (P28223 whole entry): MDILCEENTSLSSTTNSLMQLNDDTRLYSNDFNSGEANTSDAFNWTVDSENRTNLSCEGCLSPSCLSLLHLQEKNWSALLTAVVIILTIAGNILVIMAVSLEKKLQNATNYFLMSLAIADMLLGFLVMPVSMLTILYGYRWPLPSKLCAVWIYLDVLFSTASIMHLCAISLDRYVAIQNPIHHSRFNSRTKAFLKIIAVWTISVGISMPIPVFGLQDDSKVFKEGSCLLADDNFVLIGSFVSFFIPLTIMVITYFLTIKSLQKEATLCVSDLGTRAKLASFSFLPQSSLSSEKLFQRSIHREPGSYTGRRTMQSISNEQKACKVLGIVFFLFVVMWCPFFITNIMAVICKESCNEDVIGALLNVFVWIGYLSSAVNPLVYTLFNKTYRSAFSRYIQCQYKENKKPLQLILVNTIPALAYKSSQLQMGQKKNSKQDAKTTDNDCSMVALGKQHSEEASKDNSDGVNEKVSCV
luciferase, sequence (P08659 whole entry): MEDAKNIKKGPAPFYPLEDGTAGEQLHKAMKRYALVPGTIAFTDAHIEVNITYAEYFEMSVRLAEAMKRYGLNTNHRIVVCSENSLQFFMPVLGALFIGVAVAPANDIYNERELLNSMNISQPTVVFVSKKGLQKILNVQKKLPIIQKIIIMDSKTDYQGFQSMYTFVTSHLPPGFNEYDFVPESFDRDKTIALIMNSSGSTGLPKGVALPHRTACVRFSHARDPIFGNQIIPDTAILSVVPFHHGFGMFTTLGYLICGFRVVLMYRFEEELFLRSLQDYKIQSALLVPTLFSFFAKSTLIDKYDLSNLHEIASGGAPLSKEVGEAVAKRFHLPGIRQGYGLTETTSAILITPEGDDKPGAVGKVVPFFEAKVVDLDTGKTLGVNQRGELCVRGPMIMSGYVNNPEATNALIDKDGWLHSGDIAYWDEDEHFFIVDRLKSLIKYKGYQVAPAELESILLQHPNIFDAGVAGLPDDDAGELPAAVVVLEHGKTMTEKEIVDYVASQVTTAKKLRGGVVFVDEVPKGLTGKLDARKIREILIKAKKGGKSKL
human dopamine D1-receptor, sequence (P21728 whole entry): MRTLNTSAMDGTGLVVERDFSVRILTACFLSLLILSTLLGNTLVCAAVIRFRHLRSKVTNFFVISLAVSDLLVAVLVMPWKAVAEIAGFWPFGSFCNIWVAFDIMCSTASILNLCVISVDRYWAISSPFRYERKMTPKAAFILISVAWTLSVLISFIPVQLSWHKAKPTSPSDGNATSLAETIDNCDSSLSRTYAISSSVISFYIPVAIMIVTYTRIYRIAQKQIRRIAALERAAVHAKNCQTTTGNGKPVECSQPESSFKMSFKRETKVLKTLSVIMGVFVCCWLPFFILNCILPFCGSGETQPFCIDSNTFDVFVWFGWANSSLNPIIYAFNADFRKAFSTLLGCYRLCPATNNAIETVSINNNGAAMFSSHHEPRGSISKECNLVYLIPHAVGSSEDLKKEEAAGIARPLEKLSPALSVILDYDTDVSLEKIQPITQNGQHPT

Q: Which “inhibition of the agonistic effect of neurokinin A” value [1] does the source give for `COc1ccccc1CN[C@H]1C2CCN(CC2)[C@H]1C(c1ccccc1)c1ccccc1` (relative stereo) [BIBO 2020, ±cis-3-(2-methoxybenzylamino)-2-benzhydrylquinulidine] here?
A: effective at higher concentrations (P7492>BIBO 2020>H-9290)

Q: How did the “change in luciferase expression/activity” value (cell line CHO C6-13) turn out when `CNc1ccc2oc(C[C@H]3O[C@@]4(CC[C@H]3C)O[C@H]([C@H](C)C(=O)c3ccc[nH]3)[C@H](C)C[C@H]4C)nc2c1C(=O)O` [A23187] was run?
A: did not bring about any significant change in the luciferase activity

Q: How did the “% max. signal (luciferase)” value (luciferase; ATP 0.06 g/l) turn out when `Nc1ncnc2c1ncn2[C@@H]1O[C@H](COP(=O)(O)OP(=O)(O)OP(=O)(O)O)[C@@H](O)[C@H]1O` [ATP, adenosine triphosphate] was run?
A: 61%

Q: What about the “% max. signal (luciferase)” value (luciferase; ATP 0.13 g/l) of the same compound?
A: 95%

Q: And the “% max. signal (luciferase)” value (luciferase; ATP 0.29 g/l)?
A: 100%

Q: And the “% max. signal (luciferase)” value (luciferase; ATP 0.65 g/l)?
A: 98%

Q: What about the “% max. signal (luciferase)” value (luciferase; ATP 1.47 g/l) of the same compound?
A: 83%

Q: What about the “% max. signal (luciferase)” value (luciferase; ATP 3.30 g/l) of the same compound?
A: 78%

Q: What does the source list for `OCCS` [BME, β-mercaptoethanol]?
A: max. signal (luciferase) (luciferase; BME 0.59 ml/l): 80%; max. signal (luciferase) (luciferase; BME 0.88 ml/l): 82%; max. signal (luciferase) (luciferase; BME 1.32 ml/l): 68%; max. signal (luciferase) (luciferase; BME 1.98 ml/l): 84%; max. signal (luciferase) (luciferase; BME 2.96 ml/l): 86%; max. signal (luciferase) (luciferase; BME 4.44 ml/l): 100%; max. signal (luciferase) (luciferase; BME 6.67 ml/l): 94%; max. signal (luciferase) (luciferase; BME 10.0 ml/l): 93%

Q: Which “change in luciferase expression/activity” value (cell line CHO C6-13) does the source give for `CC(C)Cn1c(=O)n(C)c(=O)c2[nH]cnc21` [IBMX, isobutylmethylxanthine] here?
A: increased

Q: And the “shift in the forskolin dosage-activity curve to lower forskolin concentrations” value (cell line CHO C6-13; with IBMX)?
A: one order of magnitude

Q: And the “influence on maximum induction of the luciferase reporter gene” value (cell line CHO C6-13; with forskolin)?
A: not significantly influenced

Q: How did the “% max. signal (luciferase)” value (luciferase; luciferin 1.32 mg/l) turn out when `O=C(O)[C@H]1CSC(c2nc3ccc(O)cc3s2)=N1` [Lucifenn] was run?
A: 42%

Q: What about the “% max. signal (luciferase)” value (luciferase; luciferin 1.98 mg/l) of the same compound?
A: 58%

Q: And the “% max. signal (luciferase)” value (luciferase; luciferin 2.96 mg/l)?
A: 65%

Q: What about the “% max. signal (luciferase)” value (luciferase; luciferin 4.44 mg/l) of the same compound?
A: 75%

Q: And the “% max. signal (luciferase)” value (luciferase; luciferin 6.67 mg/l)?
A: 88%

Q: And the “% max. signal (luciferase)” value (luciferase; luciferin 10.0 mg/l)?
A: 95%

Q: What about the “% max. signal (luciferase)” value (luciferase; luciferin 15.0 mg/l) of the same compound?
A: 100%

Q: What does the source list for `O.O.O.O.O.O.O.O=S(=O)([O-])[O-].[Mg+2]` [MgSO4, magnesium sulphate-heptahydrate]?
A: % max. signal (luciferase) (luciferase; MgSO4 0.35 g/l): 20%; % max. signal (luciferase) (luciferase; MgSO4 0.53 g/l): 48%; % max. signal (luciferase) (luciferase; MgSO4 0.79 g/l): 64%; % max. signal (luciferase) (luciferase; MgSO4 1.19 g/l): 77%; % max. signal (luciferase) (luciferase; MgSO4 1.78 g/l): 77%; % max. signal (luciferase) (luciferase; MgSO4 2.67 g/l): 100%; % max. signal (luciferase) (luciferase; MgSO4 4.00 g/l): 100%

Q: How did the “% max. signal (luciferase)” value (luciferase; NaTPP 5.01 mg/l) turn out when `O=P(O)(O)OP(=O)(O)OP(=O)(O)O` [NaTPP, sodium tripolyphosphate] was run?
A: 54%

Q: What about the “% max. signal (luciferase)” value (luciferase; NaTPP 15.8 mg/l) of the same compound?
A: 64%

Q: What about the “% max. signal (luciferase)” value (luciferase; NaTPP 50.0 mg/l) of the same compound?
A: 82%

Q: What about the “% max. signal (luciferase)” value (luciferase; NaTPP 158 mg/l) of the same compound?
A: 100%

Q: And the “% max. signal (luciferase)” value (luciferase; NaTPP 500 mg/l)?
A: 75%

Q: For `CC(C)C[C@H]1C(=O)N2CCC[C@H]2[C@]2(O)O[C@](NC(=O)[C@@H]3C=C4c5cccc6[nH]c(Br)c(c56)C[C@H]4N(C)C3)(C(C)C)C(=O)N12` [bromocryptin], which “change in luciferase expression/activity” value (cell line CHO C6-13) is on record?
A: did not bring about any significant change in the luciferase activity

Q: And the “luciferase induction at the highest concentration (attributed to cell toxicity or low pH)” value ([2]; 100 μM bromocryptin)?
A: reversal of luciferase induction

Q: And the “activity on luciferase induction” value ([2]; FIG. 38B)?
A: dosage-dependent activity

Q: `C[N+](C)(C)CCOC(N)=O` [carbachol] was tested. Which “change in luciferase expression/activity” value (cell line CHO C6-13) did it give?
A: did not bring about any significant change in the luciferase activity

Q: How did the “change in luciferase expression/activity” value (cell line CHO C6-13) turn out when `CCCC(=O)Nc1ncnc2c1ncn2[C@@H]1O[C@@H]2COP(=O)(O)O[C@H]2[C@H]1OC(=O)CCC` [dibutyryl-cAMP] was run?
A: increased

Q: What does the source list for `NCCc1c[nH]c2ccc(O)cc12` [serotonin]?
A: change in luciferase expression/activity (cell line CHO C6-13): did not bring about any significant change in the luciferase activity; selectivity of dosage-activity curves (human 5HT2-receptor): selective for serotonin; induction time up to which luciferase activity increases continuously (human 5HT2-receptor; serotonin 1 μM): 6 h; induction of luciferase activity by receptor agonists in pretest cell line A20 (cell line A20): could not be induced

Q: `O=C(CCCN1CCC2(CC1)C(=O)NCN2c1ccccc1)c1ccc(F)cc1` [spiperone] was tested. Which “inhibition of the agonistic activity of serotonin” value (human 5HT2-receptor; constant serotonin (1 μg), increasing antagonist, FIG. 32B) did it give?
A: able to be inhibited

Q: With “neurokinin A: neurokinin (Sigma), agonist at neurokinin 2-receptor (HKTDSFVGLM-NH2; ends and bridges not checked; UniProt P20366 98-107, looked up)” as the compound, how does the “induction of luciferase activity by receptor agonists in pretest cell line A20” value (cell line A20) read?
A: could not be induced by any of the three tachykinins

Q: What does the source list for “neuromedin K (NMK): neurokinin (Sigma), tachykinin”?
A: induction of luciferase activity by receptor agonists in pretest cell line A20 (cell line A20): could not be induced by any of the three tachykinins; relative effectiveness of the neurokinins ([1]; dosage activity curves, FIG. 29A): NKA>neuromedin K (NMK)>substance P (SP)

Q: With “substance P (SP): neurokinin (Sigma), tachykinin (RPKPQQFFGLM-NH2; ends and bridges not checked; UniProt P20366 58-68, looked up)” as the compound, how does the “induction of luciferase activity by receptor agonists in pretest cell line A20” value (cell line A20) read?
A: could not be induced by any of the three tachykinins
